According to patent US6143769A, “Phenylacetic acid benzylamides” (Karl Thomae GmbH, priority 1983, dated 2000):

What was measured:
blood sugar = assay: Blood sugar-lowering effect of the enantiomers in fasted female rats (oral); format: in vivo
Procedure: The substances to be investigated were suspended in 1.5% methylcellulose immediately before the start of the test and administered into the oesophagus. […] Glucose was measured in the supernatant by the hexokinase method using an analytical photometer. The statistical evaluation was carried out using the Student's t-test with p=0.05 as the limit of significance. Table 1 which follows contains the statistically significant values as percentage deviations from the control: […]

glucose [1] = assay: Study 3: whole blood glucose, single fasting test subject, crossover; format: in vivo, human
[2] = Study 3: plasma concentration of active substance, single test subject; format: in vivo, human
glucose [3] = assay: Study 4: whole blood glucose, AG-EE 623 ZW spray-dried tablets; format: in vivo, human
Text: Blood samples were taken at different times.

CCOc1cc(CC(=O)N[C@@H](CC(C)C)c2ccccc2N2CCCCC2)ccc1C(=O)O [AG-EE 623 ZW, (S)(+)-2-ethoxy-4-[N-[1-(2-piperidino-phenyl)-3-methyl-1-butyl]aminocarbonylmethyl]-benzoic acid]
Glucose, percentage deviation from control (blood sugar; 0.015 mg/kg p.o., 1 h): -17 percentage deviation | Glucose, percentage deviation from control (blood sugar; 0.015 mg/kg p.o., 2 h): -36 percentage deviation | Glucose, percentage deviation from control (blood sugar; 0.015 mg/kg p.o., 3 h): -37 percentage deviation | Glucose, percentage deviation from control (blood sugar; 0.015 mg/kg p.o., 4 h): -32 percentage deviation | Glucose, percentage deviation from control (blood sugar; 0.015 mg/kg p.o., 5 h): -35 percentage deviation | Glucose, percentage deviation from control (blood sugar; 0.015 mg/kg p.o., 6 h): -35 percentage deviation | Blood sugar-lowering effect (in words) (blood sugar; rat): effective enantiomer | Duration of effect (blood sugar; rat, 0.015 mg/kg p.o.): > 6 h | Maximum lowering of blood glucose (glucose [1]; 2 mg): -43% | Onset of effect (glucose [1]; 2 mg): 0.5 h | Time of maximum blood sugar reduction (glucose [1]; 2 mg): 1.5 h | Glucose, deviation against t = 0 (glucose [1]; 2 mg capsule, 0 h): 0% | Glucose, deviation against t = 0 (glucose [1]; 2 mg, 0.50 h): -10% | Glucose, deviation against t = 0 (glucose [1]; 2 mg, 0.75 h): -14% | Glucose, deviation against t = 0 (glucose [1]; 2 mg, 1.00 h): -18% | Glucose, deviation against t = 0 (glucose [1]; 2 mg, 1.25 h): -29% | Glucose, deviation against t = 0 (glucose [1]; 2 mg, 1.50 h): -43% | Glucose, deviation against t = 0 (glucose [1]; 2 mg, 1.75 h): -40% | Glucose, deviation against t = 0 (glucose [1]; 2 mg, 2.00 h): -33% | Glucose, deviation against t = 0 (glucose [1]; 2 mg, 2.50 h): -33% | Glucose, deviation against t = 0 (glucose [1]; 2 mg, 3.00 h): -31% | Glucose, deviation against t = 0 (glucose [1]; 2 mg, 4.00 h): -20% | Glucose, deviation against t = 0 (glucose [1]; 2 mg, 5.00 h): -22% | Glucose, deviation against t = 0 (glucose [1]; 2 mg, 6.00 h): -28% | Glucose, deviation against t = 0 (glucose [1]; 2 mg, 7.00 h): -22% | Glucose, deviation against t = 0 (glucose [1]; 2 mg, 8.00 h): -26% | Maximum level relative to level after same dose of AG-EE 388 ZW ([2]; 2 mg): about one third | Maximum concentration ([2]; 2 mg capsule, listed as 623): 24 ng/mL | Active substance concentration ([2]; 2 mg, 1.25 h): 0 ng/mL | Active substance concentration ([2]; 2 mg, 2.50 h): 0 ng/mL | Active substance concentration ([2]; 2 mg, 3.00 h): 0 ng/mL | Active substance concentration ([2]; 2 mg, 3.50 h): 0 ng/mL | Active substance concentration ([2]; 2 mg, 4.00 h): 0 ng/mL | Active substance concentration ([2]; 2 mg, 6.00 h): 0 ng/mL | Active substance concentration ([2]; 2 mg, 7.00 h): 0 ng/mL | Cmax ([2]; human, plasma, po, 2 mg, 2 mg capsule, read-out: Maximum concentration): 22 to 24 ng/mL | concentration at 1.5 h ([2]; human, plasma, po, 2 mg, 1.50 h): 22 ng/mL | concentration at 1.75 h ([2]; human, plasma, po, 2 mg, 1.75 h): 24 ng/mL | concentration at 2 h ([2]; human, plasma, po, 2 mg, 2.00 h): 7 ng/mL | Glucose (mean) (glucose [3]; 0.5 mg tablet, 0 h): 5.21 mmol/L | Glucose (mean) (glucose [3]; 0.5 mg, 0.25 h (breakfast)): 5.09 mmol/L | Glucose (mean) (glucose [3]; 0.5 mg, 0.50 h): 5.01 mmol/L | Glucose (mean) (glucose [3]; 0.5 mg, 0.75 h): 5.85 mmol/L | Glucose (mean) (glucose [3]; 0.5 mg, 1.00 h): 5.88 mmol/L | Glucose (mean) (glucose [3]; 0.5 mg, 1.50 h): 4.05 mmol/L | Glucose (mean) (glucose [3]; 0.5 mg, 2.09 h (so in the source)): 3.50 mmol/L | Glucose (mean) (glucose [3]; 0.5 mg, 3.00 h): 3.90 mmol/L | Glucose (mean) (glucose [3]; 0.5 mg, 4.00 h): 4.08 mmol/L | Glucose (mean) (glucose [3]; 0.5 mg, 5.00 h): 4.32 mmol/L | Glucose (mean) (glucose [3]; 0.5 mg, 6.00 h): 6.63 mmol/L | Glucose (mean) (glucose [3]; 0.5 mg, 8.00 h): 5.61 mmol/L | Glucose (mean) (glucose [3]; 0.5 mg, 10.00 h (dinner)): 4.81 mmol/L | Glucose (mean) (glucose [3]; 0.5 mg, 24.00 h): 4.82 mmol/L | Time of peak blood sugar lowering (glucose [3]; 1 mg and 2 mg tablet): 1.5 h | Duration of blood sugar lowering (glucose [3]; 1 mg tablet): up to 2 hours | Start of blood sugar lowering (glucose [3]; 1 mg tablet): 1.0 h | Glucose (mean) (glucose [3]; 1 mg tablet, 0 h): 4.62 mmol/L | Glucose (mean) (glucose [3]; 1 mg, 0.25 h (breakfast)): 4.62 mmol/L | Glucose (mean) (glucose [3]; 1 mg, 0.50 h): 4.57 mmol/L | Glucose (mean) (glucose [3]; 1 mg, 0.75 h): 5.36 mmol/L | Glucose (mean) (glucose [3]; 1 mg, 1.00 h): 4.72 mmol/L | Glucose (mean) (glucose [3]; 1 mg, 1.50 h): 2.98 mmol/L | Glucose (mean) (glucose [3]; 1 mg, 2.09 h (so in the source)): 3.20 mmol/L | Glucose (mean) (glucose [3]; 1 mg, 3.00 h): 3.69 mmol/L | Glucose (mean) (glucose [3]; 1 mg, 4.00 h): 4.05 mmol/L | Glucose (mean) (glucose [3]; 1 mg, 5.00 h): 3.94 mmol/L | Glucose (mean) (glucose [3]; 1 mg, 6.00 h): 6.48 mmol/L | Glucose (mean) (glucose [3]; 1 mg, 8.00 h): 5.37 mmol/L | Glucose (mean) (glucose [3]; 1 mg, 10.00 h (dinner)): 4.57 mmol/L | Glucose (mean) (glucose [3]; 1 mg, 24.00 h): 4.69 mmol/L | Duration of blood sugar lowering (glucose [3]; 2 mg tablet): ≤ 5 h
